The record followed here is patent US9085561B2, “Cyclic urea- or lactam-substituted quinoxaline-type piperidines as ORL-1 modulators” (priority 2012, dated 2015).

Some results are limits rather than exact numbers.

The target of the assay is human CYP2D6 (Homo sapiens, UniProt P10635). The assay is described as follows: Cytochrome P450 2D6 inhibition (dextromethorphan O-demethylation, pooled human hepatic microsome).
human CYP2D6, sequence (P10635 whole entry): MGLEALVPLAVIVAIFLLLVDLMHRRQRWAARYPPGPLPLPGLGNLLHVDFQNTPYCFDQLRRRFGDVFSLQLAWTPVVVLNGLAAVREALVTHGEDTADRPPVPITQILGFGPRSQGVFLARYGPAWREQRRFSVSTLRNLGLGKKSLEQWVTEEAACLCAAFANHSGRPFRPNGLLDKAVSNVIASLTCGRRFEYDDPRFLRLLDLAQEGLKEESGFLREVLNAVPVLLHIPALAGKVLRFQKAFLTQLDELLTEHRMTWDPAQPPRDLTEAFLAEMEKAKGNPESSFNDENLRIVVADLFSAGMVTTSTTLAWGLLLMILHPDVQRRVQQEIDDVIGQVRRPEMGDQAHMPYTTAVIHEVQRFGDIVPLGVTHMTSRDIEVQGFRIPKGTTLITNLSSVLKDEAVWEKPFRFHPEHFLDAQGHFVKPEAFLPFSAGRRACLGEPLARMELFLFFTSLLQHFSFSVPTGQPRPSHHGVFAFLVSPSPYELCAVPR
In the case of `CC1(C)NC(=O)N(c2nc3ccccc3n([C@H]3C[C@H]4CCC[C@@H](C3)N4[C@@H]3C[C@@H]4CCCC[C@@H](C4)C3)c2=O)C1=O` [Compound O22b, 3-(4-((1R,3R,5S)-9-((1R,6S,8s)-bicyclo[4.3.1]decan-8-yl)-9-azabicyclo[3.3.1]nonan-3-yl)-3-oxo-3,4-dihydroquinoxalin-2-yl)-5,5-dimethylimidazolidine-2,4-dione], the IC50 is > 20 µM.
`O=C(O)Cn1cc(-c2nc3ccccc3n([C@H]3C[C@H]4CCC[C@@H](C3)N4[C@H]3C[C@@H]4CCC[C@@H](C4)C3)c2=O)ccc1=O` [Compound U007, 2-(5-(4-((1R,1′R,3r,3′R,5S,5′S)-[3,9′-bi(9′-azabicyclo[3.3.1]nonan)]-3′-yl)-3-oxo-3,4-dihydroquinoxalin-2-yl)-2-oxopyridin-1(2H)-yl)acetic acid]: the IC50 was > 20 µM.
Consider `O=C(O)Cn1ccc(-c2nc3ccccc3n([C@H]3C[C@H]4CCC[C@@H](C3)N4[C@H]3C[C@@H]4CCC[C@@H](C4)C3)c2=O)cc1=O` [Compound U010, 2-(4-(4-((1R,1′R,3r,3R,5S,5′S)-[3,9′-bi(9′-azabicyclo[3.3.1]nonan)]-3′-yl)-3-oxo-3,4-dihydroquinoxalin-2-yl)-2-oxopyridin-1(2H)-yl)acetic acid], for which the IC50 is > 20 µM.
Then `O=C(O)c1cc(-c2nc3ccccc3n([C@H]3C[C@H]4CCC[C@@H](C3)N4[C@@H]3C[C@@H]4CCCC[C@@H](C4)C3)c2=O)c[nH]c1=O` [Compound U043, 5-(4-((1R,3R,5S)-9-((1R,6S,8s)-bicyclo[4.3.1]decan-8-yl)-9-azabicyclo[3.3.1]nonan-3-yl)-3-oxo-3,4-dihydroquinoxalin-2-yl)-2-oxo-1,2-dihydropyridine-3-carboxylic acid], with > 20 µM; and `C[C@@H]1C[C@@H]2C[C@H](C1)C[C@@H](N1[C@@H]3CCC[C@H]1C[C@@H](n1c(=O)c(-c4c[nH]c(=O)cn4)nc4ccccc41)C3)C2` [Compound U052, 1-((1R,1′R,3r,3′R,5S,5′S,7S)-7-methyl-[3,9′-bi(9′-azabicyclo[3.3.1]nonan)]-3′-yl)-3-(5-oxo-4,5-dihydropyrazin-2-yl)quinoxalin-2(1H)-one], with > 20 µM.
The same measure for `C[C@@H]1C[C@@H]2C[C@H](C1)C[C@@H](N1[C@@H]3CCC[C@H]1C[C@@H](n1c(=O)c(-c4ccc(=O)[nH]c4)nc4ccccc41)C3)C2` [Compound U060, 1-((1R,1′R,3r,3′R,5S,5′S,7S)-7-methyl-[3,9′-bi(9′-azabicyclo[3.3.1]nonan)]-3′-yl)-3-(6-oxo-1,6-dihydropyridin-3-yl)quinoxalin-2(1H)-one]: > 20 µM; for `C[C@@H]1C[C@@H]2C[C@H](C1)C[C@@H](N1[C@@H]3CCC[C@H]1C[C@@H](n1c(=O)c(-c4c[nH]c(=O)c(C(N)=O)c4)nc4ccccc41)C3)C2` [Compound U063, 5-(4-((1R,1′R,3r,3′R,5S,5′S,7S)-7-methyl-[3,9′-bi(9′-azabicyclo[3.3.1]nonan)]-3′-yl)-3-oxo-3,4-dihydroquinoxalin-2-yl)-2-oxo-1,2-dihydropyridine-3-carboxamide]: 7.2 µM; for `C[C@@H]1C[C@@H]2C[C@H](C1)C[C@@H](N1[C@@H]3CCC[C@H]1C[C@@H](n1c(=O)c(-c4c[nH]c(=O)c(C(=O)O)c4)nc4ccccc41)C3)C2` [Compound U064, 5-(4-((1R,1′R,3r,3′R,5S,5′S,7S)-7-methyl-[3,9′-bi(9′-azabicyclo[3.3.1]nonan)]-3′-yl)-3-oxo-3,4-dihydroquinoxalin-2-yl)-2-oxo-1,2-dihydropyridine-3-carboxylic acid]: > 20 µM.
Then `Cc1cc(=O)[nH]c(=O)n1-c1nc2ccccc2n([C@H]2C[C@H]3CCC[C@@H](C2)N3[C@H]2C[C@@H]3CCC[C@@H](C3)C2)c1=O` [Compound U065, 1-(4-((1R,1R,3r,3′R,5S,5′S)-[3,9′-bi(9′-azabicyclo[3.3.1]nonan)]-3′-yl)-3-oxo-3,4-dihydroquinoxalin-2-yl)-6-methylpyrimidine-2,4(1H,3H)-dione], with > 20 µM; and `Nc1ccn(-c2nc3ccccc3n([C@H]3C[C@H]4CC[C@@H](C3)N4[C@@H]3C[C@@H]4CCCC[C@@H](C4)C3)c2=O)c(=O)n1` [Compound U066, 3-(4-amino-2-oxopyrimidin-1(2H)-yl)-1-((1R,3R,5S)-8-((1R,6S,8s)-bicyclo[4.3.1]decan-8-yl)-8-azabicyclo[3.2.1]octan-3-yl)quinoxalin-2(1H)-one], with > 20 µM; and `Nc1nc(=O)n(-c2nc3ccccc3n([C@H]3C[C@H]4CCC[C@@H](C3)N4[C@@H]3C[C@@H]4CCCC[C@@H](C4)C3)c2=O)cc1F` [Compound U067], with > 20 µM.
Turning to `O=C(O)Cn1c(-c2nc3ccccc3n([C@H]3C[C@H]4CC[C@@H](C3)N4[C@@H]3C[C@@H]4CCCC[C@@H](C4)C3)c2=O)cccc1=O` [DD1b(iii), 2-(6-(4-((1R,3R,5S)-8-((1R,6S,8s)-bicyclo[4.3.1]decan-8-yl)-8-azabicyclo[3.2.1]octan-3-yl)-3-oxo-3,4-dihydroquinoxalin-2-yl)-2-oxopyridin-1(2H)-yl)acetic acid], the IC50 was > 20 µM.
As to `O=C(O)Cn1c(-c2nc3ccccc3n([C@H]3C[C@H]4CCC[C@@H](C3)N4[C@@H]3C[C@@H]4CCCC[C@@H](C4)C3)c2=O)cccc1=O` [EE1b(iii), 2-(6-(4-((1R,3R,5S)-9-((1R,6S,8s)-bicyclo[4.3.1]decan-8-yl)-9-azabicyclo[3.3.1]nonan-3-yl)-3-oxo-3,4-dihydroquinoxalin-2-yl)-2-oxopyridin-1(2H)-yl)acetic acid], the IC50 was > 20 µM.
Then `O=c1[nH]nc(-c2nc3ccccc3n([C@H]3C[C@H]4CCC[C@@H](C3)N4[C@@H]3C[C@@H]4CCCC[C@@H](C4)C3)c2=O)[nH]1` [EE6b(i)(i), 1-((1R,3R,5S)-9-((1R,6S,8s)-bicyclo[4.3.1]decan-8-yl)-9-azabicyclo[3.3.1]nonan-3-yl)-3-(5-oxo-4,5-dihydro-1H-1,2,4-triazol-3-yl)quinoxalin-2(1H)-one], with > 20 µM; and `O=C(O)Cn1c(-c2nc3ccccc3n([C@H]3C[C@H]4CC[C@@H](C3)N4[C@H]3C[C@@H]4CCC[C@@H](C4)C3)c2=O)cccc1=O` [Q1a(iii), 2-(6-(4-((1R,3R,5S)-8-((1R,3r,5S)-bicyclo[3.3.1]nonan-3-yl)-8-azabicyclo[3.2.1]octan-3-yl)-3-oxo-3,4-dihydroquinoxalin-2-yl)-2-oxopyridin-1(2H)-yl)acetic acid], with > 20 µM; and `O=c1cncc(-c2nc3ccccc3n([C@H]3C[C@H]4CCC[C@@H](C3)N4[C@H]3C[C@@H]4CCC[C@@H](C4)C3)c2=O)[nH]1` [R3a(i), 1-((1R,1′R,3r,3′R,5S,5′S)-[3,9′-bi(9′-azabicyclo[3.3.1]nonan)]-3′-yl)-3-(6-oxo-1,6-dihydropyrazin-2-yl)quinoxalin-2(1H)-one], with > 20 µM.
Then `O=c1[nH]nc(-c2nc3ccccc3n([C@H]3C[C@H]4CCC[C@@H](C3)N4[C@H]3C[C@@H]4CCC[C@@H](C4)C3)c2=O)[nH]1` [R6a(i)(i), 1-((1R,1′R,3r,3′R,5S,5′S)-[3,9′-bi(9′-azabicyclo[3.3.1]nonan)]-3′-yl)-3-(5-oxo-4,5-dihydro-1H-1,2,4-triazol-3-yl)quinoxalin-2(1H)-one], with > 20 µM.

What is called IC50 is the concentration needed to halve the response being measured. Low readings indicate inhibition by little substance, high ones a need for much substance.
